In patent US20250127755A1, “PHARMACOLOGICAL DEPLETION OF HEME FOR THE TREATMENT OF MYELODYSPLASTIC SYNDROME” (THE SCRIPPS RESEARCH INSTITUTE, priority 2021, published 2025):

Legend:
MDS-L cells [1] = experiment: MDS-L differentiation assay (GlyA positivity, 384-well FACS-based); conditions: for Maximal MDS-LGlyA fold induction: human; for EC50: read-out: MDS-L GlyA induction EC50; for inducing differentiation to more terminal blood lineages (GlyA immunopositivity): 384-well FACS-based assay
Experimental: MDS-L differentiation assay. Given a limited number of patient samples and the low yield from each biopsy, it is not tractable to conduct high-throughput screens with primary cells.
To establish a screening assay, we selected known differentiation inducers of acute myeloid leukemia cells including retinoic acid (ATRA), Brequinar, and phorbol 12-myristate 13-acetate (PMA).
MDS-L were cultured in RPMI (17-105-CV, Corning) without phenol red and supplemented with 2 mM glutamine and 10% FBS. Cells first expanded in IL-3 until 70% confluence then pre-conditioned for 14 days with IL-3 (200-03, PeproTech), GCSF (300-23, PeproTech), and EPO (287-TC, R&D Systems) to promote erythroid and myeloid differentiation. A density of 10000 cells per well were used in phenotypic assays. MDSL cells were spun and treatment media was replaced with media containing APC Anti-CD235a (GlyA) (551336. BD Biosciences) (1.25 μL per 50 μL test) and incubated for 1 hour at 4° C. Cells were washed then counter stained with SYTOX-Green 1 μM per 100 μL prior to flow cytometry, analysis. Dose response and pharmacological assays were analyzed using a ZE5 Cell Analyzer (BioRad) equipped with Everest software. Single, live, cells were analyzed for GlyA expression using FlowJo v10.7.2 software.

MDS-L cells [2] = experiment: Induction of apoptosis; type: cell-based; conditions: below 20 μM
MDS-L cells [3] = experiment: CFU assays of MDS-L cells; type: cell-based
MDS-L cells [4] = experiment: Loss of CD71; type: cell-based
MDS-L cells [5] = experiment: Heme levels of MDS-L cells; type: cell-based; conditions: over relevant time periods, FIG. 4B
Experimental: FIG. 4A-FIG. 4C. Heme depletion induces terminal differentiation of MDS-L cells. A: Relative induction of GlyA positive MDS-L cells in response to treatment for 96 hours with the indicated concentrations of NMPP. B: Heme levels of MDS-L cells treated with the indicated compounds. C: Relative induction of GlyA positive cells after 96-hour treatment with artemisone and hemin.
An additional consequence of this mechanism is the alkylation of artemisinin to heme, resulting in its functional inactivation. Because we found no other reactive oxygen species (ROS)-inducers or alkylators as active hits from the screen, we reasoned that heme depletion is a way in which artemisinins promote differentiation of this cellular population.

`C[C@H]1[C@H](OC(=O)CCC(=O)O)O[C@@H]2O[C@@]3(C)CC[C@H]4[C@H](C)CC[C@@H]1[C@@]24OO3` (stereo in doubt) [Artesunate] was tested, and the “Maximal MDS-LGlyA fold induction” value (MDS-L cells [1]) was 7.51 fold and the EC50 (MDS-L cells [1]) was 850 nM.

With `C[C@@H]1CC[C@H]2[C@@H](C)C(=O)O[C@@H]3O[C@@]4(C)CC[C@@H]1[C@]32O4` [2-deoxy-artemisinin] the “activity in differentiation assays” value (MDS-L cells [1]) was “inactive”.

For `CC1=C(/C=C/C(C)=C/C=C/C(C)=C/C(=O)O)C(C)(C)CCC1` [ATRA, retinoic acid], the “cytotoxicity as readout by live dead cell gating” value (MDS-L cells [1]; MDS-L cells, FIG. 2) was “minimal cytotoxicity”.

With `CCO[C@H]1O[C@@H]2O[C@@]3(C)CC[C@H]4[C@H](C)CC[C@@H]([C@H]1C)[C@@]24OO3` [Arteether] the “Maximal MDS-LGlyA fold induction” value (MDS-L cells [1]) was 3.82 fold, the EC50 (MDS-L cells [1]) was 580 nM and the induction in apoptosis (MDS-L cells [2]) was “no significant induction”. For the same compound, the “number of BFU-E, CFU-GM and CFU-GEMM type colonies” value (MDS-L cells [3]) was “decreasing”, the “terminal differentiation of MDS-L cells to CFU-Es” value (MDS-L cells [3]) was “efficaciously induced” and the “loss of CD71” value (MDS-L cells [4]) was “efficaciously promoted”.

For `c1cc([C@H]2CC[C@]3(CC2)OOC2(O3)[C@@H]3C[C@H]4C[C@H](C[C@@H]2C4)C3)ccc1OCCN1CCOCC1` (stereo partly drawn) [Artefenomel (OZ-439), Artefenomel], the “Maximal MDS-LGlyA fold induction” value (MDS-L cells [1]) was 3.71 fold and the EC50 (MDS-L cells [1]) was 5650 nM.

With `C[C@H]1[C@@H](OCc2ccc(C(=O)O)cc2)O[C@@H]2O[C@@]3(C)CC[C@H]4[C@H](C)CC[C@@H]1[C@@]24OO3` [Artelinic acid (artelinate), Artelinic acid] the “Maximal MDS-LGlyA fold induction” value (MDS-L cells [1]) was 7.26 fold and the EC50 (MDS-L cells [1]) was 30 nM.

With `C[C@H]1[C@H](N2CCS(=O)(=O)CC2)O[C@@H]2O[C@@]3(C)CC[C@H]4[C@H](C)CC[C@@H]1[C@@]24OO3` [Artemisone] the “potential to induce differentiation of MDS-L cells on addition of exogenous heme (hemin)” value (MDS-L cells [1]; 96-hour treatment with artemisone and hemin, FIG. 4C) was “suppressed”, the “Maximal MDS-LGlyA fold induction” value (MDS-L cells [1]) was 6.84 fold and the EC50 (MDS-L cells [1]) was 150 nM. For the same compound, the induction in apoptosis (MDS-L cells [2]) was “no significant induction”, the “number of BFU-E, CFU-GM and CFU-GEMM type colonies” value (MDS-L cells [3]) was “decreasing” and the “terminal differentiation of MDS-L cells to CFU-Es” value (MDS-L cells [3]) was “efficaciously induced”. The “loss of CD71” value (MDS-L cells [4]) was “efficaciously promoted” and the “levels of labile heme in MDS-L cells” value (MDS-L cells [5]) was “efficiently reduced”.

`CC(C)(N)CNC(=O)C[C@H]1CC[C@]2(CC1)OO[C@]1(O2)[C@@H]2C[C@H]3C[C@@H](C2)C[C@@H]1C3` [Arterolane (OZ-277), Arterolane] was tested, and the “Maximal MDS-LGlyA fold induction” value (MDS-L cells [1]) was 7.02 fold and the EC50 (MDS-L cells [1]) was 1740 nM.

`Cc1c(-c2ccc(-c3ccccc3F)cc2)nc2ccc(F)cc2c1C(=O)O` [Brequinar] was tested, and the “inducing differentiation to more terminal blood lineages (GlyA immunopositivity)” value (MDS-L cells [1]; MDS-L cells) was “efficacious”.

For `C[C@H]1[C@@H](O)O[C@@H]2O[C@@]3(C)CC[C@H]4[C@H](C)CC[C@@H]1[C@@]24OO3` [Dihydroarte misin, dihydroartemisinin], the “Maximal MDS-LGlyA fold induction” value (MDS-L cells [1]) was 7.09 fold and the EC50 (MDS-L cells [1]) was 610 nM.

With `CCCCCCCCCCCCCC(=O)O[C@@H]1[C@@H](C)[C@@]2(O)[C@@H](C=C(CO)C[C@]3(O)C(=O)C(C)=C[C@@H]23)[C@@H]2C(C)(C)[C@]12OC(C)=O` [PMA, phorbol 12-myristate 13-acetate] the “inducing differentiation to more terminal blood lineages (GlyA immunopositivity)” value (MDS-L cells [1]; MDS-L cells) was “efficacious”.

With N-methylprotoporphyrin [NMPP] the “GlyA positivity in MDS-L cells” value (MDS-L cells [1]; treatment for 96 hours, FIG. 4A) was “increase” and the “levels of labile heme in MDS-L cells” value (MDS-L cells [5]) was “efficiently reduced”.
